Laboratory results published in ChEMBL document CHEMBL1201862, “PubChem BioAssay data set” (2004).
Calls of active or inactive are those of the source.

Legend:
[1] = target: Cyclin-dependent kinase 2 (Homo sapiens, UniProt P24941); experiment: inhibition of human CDK2/cyclin A – biochemical, cherry-picked samples, selectivity assay for Dyrk1A inhibitor project, dose response (AID 602127)
[2] = target: Dual specificity protein kinase CLK1 (Homo sapiens, UniProt P49759); experiment: inhibition of human CLK1 activity – biochemical, cherry-picked samples, selectivity assay for Dyrk1A inhibitor project, dose response (AID 588811)
Dual specificity protein kinase CLK1, sequence (P49759 whole entry): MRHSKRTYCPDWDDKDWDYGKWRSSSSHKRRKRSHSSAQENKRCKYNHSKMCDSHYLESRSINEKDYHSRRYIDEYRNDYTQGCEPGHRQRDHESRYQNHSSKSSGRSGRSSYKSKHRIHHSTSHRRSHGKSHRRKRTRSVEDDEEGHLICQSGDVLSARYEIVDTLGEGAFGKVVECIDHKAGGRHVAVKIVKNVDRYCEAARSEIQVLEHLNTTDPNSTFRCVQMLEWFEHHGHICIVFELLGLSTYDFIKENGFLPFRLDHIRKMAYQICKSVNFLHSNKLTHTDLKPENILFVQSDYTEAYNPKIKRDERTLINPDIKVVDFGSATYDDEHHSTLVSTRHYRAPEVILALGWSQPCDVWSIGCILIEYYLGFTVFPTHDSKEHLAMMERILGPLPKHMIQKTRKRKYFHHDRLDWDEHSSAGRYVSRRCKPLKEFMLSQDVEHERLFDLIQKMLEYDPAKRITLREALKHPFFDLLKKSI

[3] = loss of viability in HepG2 cells – cell-based, CellTiter-Glo, cherry-picked, cytotoxicity control for Shn3 inhibitor project, dose response (AID 624134); type: functional
[4] = target: T1, Heat shock factor protein 1 (Mus musculus, UniProt P38532); experiment: decrease of HSF1-responsive luciferase luminescence – cell-based, NIH3T3, dose retest, confirmation (AID 2382); type: functional;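 further: NIH3T3 fibroblasts with HSF1-driven luciferase reporter stressed by proteasome inhibitor MG132; luminescence from HSF1-driven luciferase expression after 8 hours of MG132 stress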
T1 sequence (P38532 whole entry): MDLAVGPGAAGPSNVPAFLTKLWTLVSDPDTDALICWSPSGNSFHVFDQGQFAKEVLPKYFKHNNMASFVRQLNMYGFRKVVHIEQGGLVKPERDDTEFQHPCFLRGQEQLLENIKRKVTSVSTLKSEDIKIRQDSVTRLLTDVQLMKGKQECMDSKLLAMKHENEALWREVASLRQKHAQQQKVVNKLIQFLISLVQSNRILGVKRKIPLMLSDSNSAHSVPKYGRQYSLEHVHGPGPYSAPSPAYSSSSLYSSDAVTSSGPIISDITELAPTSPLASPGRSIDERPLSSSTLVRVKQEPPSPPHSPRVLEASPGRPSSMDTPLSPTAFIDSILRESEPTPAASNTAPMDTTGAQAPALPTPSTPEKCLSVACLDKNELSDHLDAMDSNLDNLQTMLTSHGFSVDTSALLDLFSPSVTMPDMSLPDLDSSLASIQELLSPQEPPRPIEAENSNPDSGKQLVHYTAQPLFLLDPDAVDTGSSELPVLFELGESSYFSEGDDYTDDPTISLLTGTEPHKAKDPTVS

HEK293 [5] = experiment: SAR Analysis of small molecule inhibitors of both B-cell and T-cell specific antigen receptor-induced NF-kB activation in a HEK-293T cell line using a luminescence assay. [Related pubchem assays (depositor defined):AID435003, AID435022, AID465, AID489019, AID489029]; type: functional, cell-based; conditions: Homo sapiens
[6] = NIH3T3 cell viability loss – ATP luminescence, mouse fibroblasts, counter-screen, dose response (AID 2010); type: functional, cell-based;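 further: cells exposed to compound for about 90 hours before reading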
[7] = Fluorescence-based cell-based high throughput dose response assay for inhibitors of the interaction of nucleotide-binding oligomerization domain containing 2 (NOD2) and the receptor-interacting serine-threonine kinase 2 (RIPK2).; type: functional; conditions: Homo sapiens
[8] = Luminescence-based dose response cell-based high throughput screening assay for cytotoxic compounds using the IEC-6 intestinal epithelial cell line. [Related pubchem assays: 1858 (Summary AID.), 1825 (Counterscreen.), 1907 (Confirmation screen.)]; type: functional
Streptococcus = experiment: GAS UMAA2166 growth inhibition – luminescence, BacTiterGlo, counter-screen for streptokinase expression inhibitor project, dose response (AID 1915); type: functional, organism-based;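 further: potency for reduction of bacterial viability or growth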
HEK293 [9] = experiment: HEK293T cell viability loss, resazurin readout – resazurin fluorescence, cytotoxicity control for NF-kB activator project, SAR follow-up (AID 493251); type: functional, cell-based; conditions: Homo sapiens
Beta-galactosidase = Beta-galactosidase (Escherichia coli, UniProt Q8VNN2); experiment: PubChem AID 485352; type: functional
Beta-galactosidase, sequence (Q8VNN2 whole entry): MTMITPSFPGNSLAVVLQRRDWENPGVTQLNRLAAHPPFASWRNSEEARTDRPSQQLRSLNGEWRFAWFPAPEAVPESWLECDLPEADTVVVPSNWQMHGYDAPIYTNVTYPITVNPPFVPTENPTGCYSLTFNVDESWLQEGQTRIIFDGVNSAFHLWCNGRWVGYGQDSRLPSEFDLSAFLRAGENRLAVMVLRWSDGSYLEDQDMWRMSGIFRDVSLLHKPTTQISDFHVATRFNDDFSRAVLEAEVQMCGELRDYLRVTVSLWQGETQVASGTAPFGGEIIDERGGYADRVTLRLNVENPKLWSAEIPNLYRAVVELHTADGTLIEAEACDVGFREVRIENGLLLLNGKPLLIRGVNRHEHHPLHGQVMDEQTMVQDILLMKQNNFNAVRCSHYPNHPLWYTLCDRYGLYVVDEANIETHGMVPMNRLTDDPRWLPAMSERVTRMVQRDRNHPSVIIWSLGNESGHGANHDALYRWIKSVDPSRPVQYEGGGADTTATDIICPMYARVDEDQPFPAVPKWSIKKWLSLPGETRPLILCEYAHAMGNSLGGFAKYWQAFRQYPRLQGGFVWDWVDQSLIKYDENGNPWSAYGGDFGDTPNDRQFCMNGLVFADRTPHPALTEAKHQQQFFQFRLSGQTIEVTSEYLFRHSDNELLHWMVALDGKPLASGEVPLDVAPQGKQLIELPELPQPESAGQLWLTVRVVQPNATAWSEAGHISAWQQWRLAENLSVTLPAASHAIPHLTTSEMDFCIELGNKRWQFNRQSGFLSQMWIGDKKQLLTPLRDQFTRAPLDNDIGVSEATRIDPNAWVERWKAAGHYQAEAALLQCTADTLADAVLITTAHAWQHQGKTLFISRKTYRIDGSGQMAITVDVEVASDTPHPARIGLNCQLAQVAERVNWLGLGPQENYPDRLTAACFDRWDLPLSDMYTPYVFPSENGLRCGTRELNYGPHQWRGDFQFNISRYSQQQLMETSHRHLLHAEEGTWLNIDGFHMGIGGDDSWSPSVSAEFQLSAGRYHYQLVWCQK

[10] = HEK-293T viability loss after treatment – luminescence, T-cell screen hits, cytotoxicity control for TCR NF-kB inhibitor project, dose response (AID 489026); type: functional, cell-based;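 further: cells exposed to compound about 14 hours before the viability readout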
[11] = system: Streptococcus sp. 'group A'; experiment: Streptococcus pyogenes SK(-)GAS viability under kanamycin – luminescence, BacTiterGlo, confirmation, counter-screen for streptokinase expression inhibitor project, dose response (AID 1900); type: functional, organism-based
Streptokinase A = target: T2, Streptokinase A (Streptococcus pyogenes serotype M1, UniProt P10520); experiment: viability-normalized secreted streptokinase activity reduction – plasminogen activation absorbance, OD405, dose response (AID 1914); type: functional, Streptococcus pyogenes M1 GAS;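 further: secreted streptokinase activity via plasminogen activation per viability signal from cell pellet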
T2 sequence (P10520 whole entry): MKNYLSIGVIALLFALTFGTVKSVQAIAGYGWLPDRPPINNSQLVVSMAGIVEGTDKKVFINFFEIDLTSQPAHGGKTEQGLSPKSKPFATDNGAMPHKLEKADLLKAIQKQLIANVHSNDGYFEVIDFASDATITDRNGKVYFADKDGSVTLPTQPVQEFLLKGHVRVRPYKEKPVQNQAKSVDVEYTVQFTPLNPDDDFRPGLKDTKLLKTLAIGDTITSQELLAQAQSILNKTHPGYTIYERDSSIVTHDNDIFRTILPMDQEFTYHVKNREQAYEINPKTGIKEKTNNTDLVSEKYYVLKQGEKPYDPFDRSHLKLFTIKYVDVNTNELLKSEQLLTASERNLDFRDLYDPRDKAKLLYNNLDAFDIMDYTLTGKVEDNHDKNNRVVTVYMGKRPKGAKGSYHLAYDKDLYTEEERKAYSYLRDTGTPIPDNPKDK

Jurkat = experiment: SAR Analysis of small molecule inhibitors of both B-cell and T-cell specific antigen receptor-induced NF-kB activation in a Jurkat cell line using a luminescence assay. [Related pubchem assays (depositor defined):AID435003, AID435022, AID465, AID489029]; type: functional, cell-based; conditions: Homo sapiens
[12] = Trypanosoma cruzi growth suppression in host cells – NIH3T3 host cells, beta-gal luminescence, confirmation (AID 2044); type: functional, cell-based;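 further: intracellular parasites grown in NIH/3T3 mouse fibroblasts as host cells; luminescent beta-galactosidase reporter signal from transgenic T. cruzi replicating inside host cells; inhibitors lower the luminescence signal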
[13] = target: T3, Type-1 angiotensin II receptor (Homo sapiens, UniProt P30556); experiment: antagonism of angiotensin II type 1 receptor – cell-based, uHTS hits, selectivity assay for APJ receptor antagonist project, dose response (AID 463214); type: functional;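 further: antagonist potency against angiotensin II stimulated AT1 response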
T3 sequence (P30556 whole entry): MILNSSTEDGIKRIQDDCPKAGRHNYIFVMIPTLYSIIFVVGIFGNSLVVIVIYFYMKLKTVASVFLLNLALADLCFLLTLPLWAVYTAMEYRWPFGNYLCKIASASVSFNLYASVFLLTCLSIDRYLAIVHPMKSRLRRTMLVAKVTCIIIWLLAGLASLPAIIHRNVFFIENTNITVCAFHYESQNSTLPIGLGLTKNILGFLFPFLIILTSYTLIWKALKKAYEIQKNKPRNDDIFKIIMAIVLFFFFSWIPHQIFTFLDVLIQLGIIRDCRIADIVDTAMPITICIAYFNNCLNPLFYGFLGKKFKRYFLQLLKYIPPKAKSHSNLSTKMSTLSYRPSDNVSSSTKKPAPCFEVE

[14] = reduction of Shn3 3'UTR-driven luciferase in osteoblasts – cell-based, Clone20 osteoblasts, firefly luciferase, cherry-picked, dose response (AID 624132); type: functional;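 further: firefly luciferase luminescence from reporter carrying the Shn3 3'UTR in osteoblasts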
[15] = non-specific 3'UTR reporter inhibition in Clone20-Shn3RL – cell-based, Renilla luciferase, cherry-picked, counter-screen for Shn3 inhibitor project, dose response (AID 624133); type: functional
[16] = target: Multidrug resistance protein CDR1 (Candida albicans, UniProt P43071); experiment: inhibition of Nile Red efflux via Candida CDR1 – S. cerevisiae AD1-8u, singleplex, Cherry Pick1 hits, dose response (AID 588606); type: functional
Multidrug resistance protein CDR1, sequence (P43071 whole entry, looked up): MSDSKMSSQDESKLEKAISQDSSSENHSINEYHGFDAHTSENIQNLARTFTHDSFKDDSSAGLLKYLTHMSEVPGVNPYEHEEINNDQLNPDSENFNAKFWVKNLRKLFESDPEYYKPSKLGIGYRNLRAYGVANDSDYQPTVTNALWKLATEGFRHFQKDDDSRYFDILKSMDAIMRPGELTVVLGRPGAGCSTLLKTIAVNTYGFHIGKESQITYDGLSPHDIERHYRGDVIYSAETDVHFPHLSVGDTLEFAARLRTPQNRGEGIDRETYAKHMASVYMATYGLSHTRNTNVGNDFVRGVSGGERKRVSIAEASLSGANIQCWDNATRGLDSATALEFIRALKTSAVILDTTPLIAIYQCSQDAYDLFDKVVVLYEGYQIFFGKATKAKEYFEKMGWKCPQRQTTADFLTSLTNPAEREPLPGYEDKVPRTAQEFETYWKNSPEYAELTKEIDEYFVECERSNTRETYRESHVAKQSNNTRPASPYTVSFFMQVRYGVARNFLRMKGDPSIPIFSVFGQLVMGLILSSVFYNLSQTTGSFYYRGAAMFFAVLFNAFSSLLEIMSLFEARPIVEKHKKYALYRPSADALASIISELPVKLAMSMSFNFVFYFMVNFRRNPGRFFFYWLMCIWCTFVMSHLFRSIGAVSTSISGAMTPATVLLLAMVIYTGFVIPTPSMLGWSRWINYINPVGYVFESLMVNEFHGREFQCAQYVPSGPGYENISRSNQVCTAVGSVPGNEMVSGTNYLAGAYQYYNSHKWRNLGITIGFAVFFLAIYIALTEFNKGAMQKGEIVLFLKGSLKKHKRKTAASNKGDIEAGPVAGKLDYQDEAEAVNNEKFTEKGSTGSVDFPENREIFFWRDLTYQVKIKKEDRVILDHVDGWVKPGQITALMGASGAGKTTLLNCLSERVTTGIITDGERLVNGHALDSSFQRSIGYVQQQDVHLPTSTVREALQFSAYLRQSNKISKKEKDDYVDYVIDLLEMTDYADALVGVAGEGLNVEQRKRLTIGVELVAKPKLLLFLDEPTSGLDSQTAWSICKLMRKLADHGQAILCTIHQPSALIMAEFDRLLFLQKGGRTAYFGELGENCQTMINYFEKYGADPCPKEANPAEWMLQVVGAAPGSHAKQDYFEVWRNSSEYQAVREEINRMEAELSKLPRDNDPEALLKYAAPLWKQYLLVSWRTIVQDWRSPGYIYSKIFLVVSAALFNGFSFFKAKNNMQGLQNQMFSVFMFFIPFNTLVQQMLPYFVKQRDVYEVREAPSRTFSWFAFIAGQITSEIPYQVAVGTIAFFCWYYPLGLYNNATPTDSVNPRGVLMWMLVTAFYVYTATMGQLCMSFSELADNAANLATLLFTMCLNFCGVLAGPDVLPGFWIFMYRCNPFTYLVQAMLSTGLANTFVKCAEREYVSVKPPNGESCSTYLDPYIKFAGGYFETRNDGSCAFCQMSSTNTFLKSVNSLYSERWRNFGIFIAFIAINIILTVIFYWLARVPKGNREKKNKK

Cc1c(-c2ccnc(NCc3cccnc3)n2)sc(=O)n1C
active: AC50 [1] 15.1 µM | AC50 [2] 0.116 µM

COc1cc(NS(=O)(=O)c2ccc(C)cc2)c2ncccc2c1
> 150 µM (not active): EC50 (Streptokinase A)
inactive: IC50 (HEK293 [5]) > 79 µM | IC50 (HEK293 [9]) > 80 µM | EC50 (Beta-galactosidase) > 40 µM | IC50 [10] > 80 µM
active: AC50 [3] 9.77 µM | EC50 [4] 24.3 µM | EC50 [6] 1.45 µM | IC50 [7] 5.53 µM | IC50 [8] 1.58 µM | EC50 (Streptococcus) 21.7 µM | EC50 [11] 2.6 µM | IC50 (Jurkat) 1.52 µM | EC50 [12] 0.524 µM | IC50 [13] 3.88 µM | AC50 [14] 3.35 µM | AC50 [15] 13.8 µM

COc1cc2c(cc1NC(=O)CSc1nnc(Cc3cccs3)n1Cc1ccco1)oc1ccccc12
active: EC50 [16] 0.011 µM
